In patent US20240043859A1, “HERBICIDE-RESISTANT PROTEIN, AND GENE AND USE THEREOF” (QINGDAO KINGAGROOT CHEMICAL COMPOUND CO., LTD., priority 2020, published 2024):
“Also recorded” adds a separate entry of the source.

Tests used:
AAD-12 = target: T1, AAD-12 (Delftia acidovorans, UniProt P83309); test: Degradation activities of AAD-12 on phenoxy acetic acid herbicides by spectrophotometry (A510); assay type: biochemical, Comamonas acidovorans; conditions: for A510 of reaction group, Reaction 1 / A510 of reaction group, Reaction 2 / A510 of reaction group, Reaction 3: AAD-12 enzyme with substrate, chromogenic detection at 510 nm; for Increased A510: reaction group versus blank group
T1 construct: made in house; host or cells: E. coli BL21(DE3)
Method: As reported in literature (Fukomori and Flausinger, Purification and characterization of 2,4-dichlorophenoxyacetate/alpha-ketoglutarate dioxygenase Journal of Biological Chemistry (1993) 268(32): 24311-24317), the constructed expression vector pET15b-AAD12 was transformed into E. coli BL21(DE3) and induced by IPTG for expression. After cells were collected and lysed, Ni-NTA column was used for purification and the purity of the protein was analyzed by SDS-PAGE.
Since phenolic products were produced by AAD-12-substrate catalytic reaction, 4-aminoantipyrine and potassium ferricyanide could be used to develop color with the products in an alkaline environment to generate red products with absorption at 510 nm, and the relevant parameters were directly read with a microplate reader.

Arabidopsis thaliana [1] = test: Spray testing of T2 generation transgenic Arabidopsis thaliana; assay type: in vivo; conditions: 100 g/ha foliage spray, 10 days after spraying
Text: The T2 generation seedlings of four representative transformants, pQY2309, pQY2310, pQY2311 and pQY2313, were selected for further spray testing. Four lines were randomly selected from the T2 generation generated by transformation of each vector, and respectively foliage-sprayed with 2,4-D (100 g/ha), MCPA (100 g/ha) and 2,4-DB sodium (100 g/ha) when Arabidopsis thaliana seeds germinated, transplanted and the seedlings grew to 5-7 leaf. Non-transgenic wild-type Col-0 served as a negative control. The level of resistance was assessed 10 days after spraying.

Arabidopsis thaliana [2] = test: Herbicide resistance of transgenic Arabidopsis thaliana seedlings on plate medium (root growth); assay type: in vivo; conditions: plate medium: 2,4-D 0.3 μmol; 2,4-DB sodium 0.7 μmol; MCPA 0.1 μmol
Method: Expression in Arabidopsis thaliana was regulated by its AtUbi10 Arabidopsis thaliana ubiquitin promoter and the MAS (mannopine synthase) terminator. Hygromycin resistance gene (HygR=hpt) served as the selection marker.
Preparation of Agrobacterium infection solution: An activated Agrobacterium (GV3101) monoclone was picked and inoculated in 30 ml YEP liquid medium [yeast powder 10 g/L, tryptone 10 g/L, NaCl 5 g/L, 25 mg/L Rifampicin and 50 mg/L Kanamycin], shaking-cultured at 200 rmp/min, 28° C. overnight until the OD600 was about 1.0-1.5, then centrifuged at 6000 rmp/min for 10 min to collect the bacteria, and the supernatant was discarded. Arabidopsis thaliana infection solution (sucrose 50 g/L, Silwet L-77 300 μL/L, no need to adjust pH) was used to resuspend the cells to OD600=0.8 for later use.
Genetic transformation of Arabidopsis thaliana by flower dipping: Before transformation of Arabidopsis thaliana plants, attentions were paid to whether the plants were growing well, the inflorescences were abundant, and no stress response occurred. The first transformation was performed when plants were about 20 cm high. Plants could be properly watered if the soil was dry. The grown siliques were cut off with scissors the day before transformation. The inflorescences of the plants to be transformed were soaked in the above-mentioned Agrobacterium solution for 30 seconds to 1 minute, which was stirred gently during the period. And a layer of liquid film should appear on the infiltrated plant. The transformed plants were cultured in a dark environment for 24 hours, and then taken out and grown in a normal light environment. A second transformation could be performed in the same way a week later. […]

T1 sequence (P83309 2-292, added parts left off): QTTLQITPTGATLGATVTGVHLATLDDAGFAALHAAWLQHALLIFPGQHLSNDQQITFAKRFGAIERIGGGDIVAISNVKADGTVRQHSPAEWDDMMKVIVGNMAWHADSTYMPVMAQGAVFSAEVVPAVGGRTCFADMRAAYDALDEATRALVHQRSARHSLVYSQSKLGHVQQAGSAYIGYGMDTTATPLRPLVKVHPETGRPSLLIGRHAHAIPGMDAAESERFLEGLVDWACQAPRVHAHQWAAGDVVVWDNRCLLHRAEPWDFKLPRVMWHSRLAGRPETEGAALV

Cc1cc(Cl)ccc1OCC(=O)O [MCPA, (4-chloro-2-methylphenoxy)acetic acid]
Degradation activity of expressed AAD-12 enzyme on the substrate (AAD-12): degradation activities | A510 of reaction group, Reaction 1 (AAD-12): 0.1998 | A510 of reaction group, Reaction 2 (AAD-12): 0.2076 | Increased A510 (AAD-12): +0.035 | Effect of the herbicide spray on wild-type Col-0 (Arabidopsis thaliana [1]): all or almost all non-transgenic wild-type Arabidopsis thaliana died; also recorded: all die | Effect of the herbicide on seminal roots of wild-type Col-0 (Arabidopsis thaliana [2]): seminal roots are inhibited; also recorded: seminal roots are not able to grow

O=C(O)CCCOc1ccc(Cl)cc1Cl [2,4-DB, 4-(2,4-dichlorophenoxy)butanoic acid]
Degradation activity of expressed AAD-12 enzyme on the substrate (AAD-12): degradation activities | A510 of reaction group, Reaction 1 (AAD-12): 0.1373 | A510 of reaction group, Reaction 2 (AAD-12): 0.1326 | A510 of reaction group, Reaction 3 (AAD-12): 0.1345 | Increased A510 (AAD-12): +0.017

O=C([O-])CCCOc1ccc(Cl)cc1Cl.[Na+] [2,4-DB sodium, reference compound]
Effect of the herbicide spray on wild-type Col-0 (Arabidopsis thaliana [1]): all or almost all non-transgenic wild-type Arabidopsis thaliana died; also recorded: severely injured | Effect of the herbicide on seminal roots of wild-type Col-0 (Arabidopsis thaliana [2]): seminal roots are inhibited; also recorded: seminal roots are not able to grow

CC(C)CCCCCOC(=O)COc1ccc(Cl)cc1Cl [2,4-D isooctyl ester]
Degradation activity of expressed AAD-12 enzyme on the substrate (AAD-12): degradation activities | A510 of reaction group, Reaction 1 (AAD-12): 0.1570 | A510 of reaction group, Reaction 2 (AAD-12): 0.1578 | A510 of reaction group, Reaction 3 (AAD-12): 0.1497 | Increased A510 (AAD-12): +0.019
